Data taken from the CATMoS acute toxicity set (Mansouri et al. 2021).

experiment: GHS categories as the set defines them, by LD50: 1 up to 5, 2 up to 50, 3 up to 300, 4 up to 2000, 5 above 2000 mg/kg; details: rat; in vivo; po
Excerpt: […]The data set underlying the modeling effort for this project was initially compiled by NICEATM and U.S. EPA’s CCTE. Briefly, LD50 data were collected from rat acute oral systemic toxicity tests, including limit tests, ranges/confidence intervals, and discrete LD50 values. The full data set included 21,200 LD50 entries for 15,688 substances. […] Data were reviewed to ensure that LD50 values with obvious errors in the extracted data such as unit conversion errors (e.g., comma and decimal separator misplacements) were either fixed or removed. After this review, 16,209 LD50 values remained. Many of the chemicals represented had multiple LD50 entries, requiring that a single representative value per Chemical Abstracts Service Registry Number (CASRN) identifier be defined to facilitate modeling efforts. Based on ATWG feedback and to define the representative LD50 as a protective value while accounting for the distribution across multiple LD50s, the median of the lowest quartile was computed using only discrete LD50 values (omitting limit test data and range and confidence interval data). A detailed summary of the data compilation is available online on the NICEATM webpage dedicated to the collaborative modeling project (NTP 2020).
[…][…] For categorical designations, limit test and range/confidence interval LD50 data were integrated wherever possible. As such, the number of chemicals with end point values/calls varies across the modeling end points (Table 3) based on whether chemicals had representative LD50 values and/or other data. If a chemical had both, the representative value was used to determine categorical calls rather than limit test data. Some data were useable only for certain end points and categories depending on the thresholds. For example, ranges that spanned multiple hazard categories were considered only for the binary (very toxic/nontoxic) end points and omitted from rendering a determination for hazard category assignment.
[…]The final data set comprising 11,992 chemicals was split into training and evaluation sets […], respectively. This process was performed semirandomly by ordering chemicals based on the five end points (categorical and continuous LD50 values) and partitioning every fourth record into the evaluation set accordingly. This approach was taken to ensure an equivalent distribution of the LD50 values and the different hazard categories between the training and the evaluation sets without supervised sampling of the chemicals based on structures (Figure 1A). The sources of the chemical structures were also kept equivalent between the two sets, with chemical structures obtained from DSSTox, being the highest quality, representing over 75% of each set (Figure 1B).

SMILES	GHS category
C=C1[C@H]2CC[C@@H]3[C@H]2C(C)(C)CCC[C@]13C	5
COC(F)(F)C(C(F)(F)F)C(F)(F)F	3
O=C1CC(=O)NC(=O)N1	5
CC(C)=CCN(CC=C(C)C)CCC(CCN(CC=C(C)C)CC=C(C)C)(C(N)=O)c1cccc2ccccc12	4
CCO[Si](CCCCl)(OCC)OCC	5
CCC(=O)CCC1C(C)=CCCC1(C)C (stereo not given)	5
Cl[Si](Cl)(C1CCCC1)C1CCCC1	5
Cc1cc2cccnc2n(-c2cccc(C(F)(F)F)c2)c1=O	3
CCCCCCCCCCCCCCCCCNP1(=S)OCc2cc([N+](=O)[O-])ccc2O1 (stereo not given)	3
CC(C)(C)c1ccc2oc(-c3ccc(-c4nc5cc(C(C)(C)C)ccc5o4)s3)nc2c1	5
Cc1nc2n(c1/C=N/NC(=O)CN(C)C)CCS2	4
Nc1nc(C2CC2)nc(C(=O)O)c1Cl	5
O=C(O)CCC(=O)O	5
CCOC(=O)c1cc(Br)ccc1OC(N)=O	5
CN1C(=CC=O)C(C)(C)c2ccccc21	3
CN1C(=O)COc2cc(C(=O)c3ccccc3)ccc21	5
O=C1c2ccccc2C(=O)c2c(NCCO)ccc(NCCO)c21	5
C[N+](C)(C)CC(O)CC(=O)[O-] (stereo not given)	5
C/C=C(\C)C(=O)OCC/C=C\CC	5
CN1C(=O)c2ccc3c4ccc5c6c(ccc(c7ccc(c2c37)C1=O)c64)C(=O)N(C)C5=O	5
Nc1ccc(S(=O)(=O)c2ccc(NCCO)cc2)cc1	5
Nc1cc(Br)c(O)c2c(O)c3c(N)cc(Br)c(O)c3c(O)c12	5
CC1(C)O[C@@H]2C[C@H]3[C@@H]4CCC5=CC(=O)CC[C@]5(C)[C@@]4(F)[C@@H](O)C[C@]3(C)[C@]2(C(=O)CCl)O1	5
O=C1Cc2ccccc2O1	5
COc1ccccc1C=CC=O	5

SMILES	GHS category
O=C1CCCCCCCCCCCCCCCO1	5
O=C(c1ccc(Oc2ccccc2)cc1)c1ccc(C(=O)c2ccc(Oc3ccccc3)cc2)cc1	5
Cn1c(=O)n(-c2ccccc2)c2cc(Cl)ccc21	4
CCOCC(C)OC(C)=O (stereo not given)	5
COC(=O)c1ccc(C(=O)Nc2cc(Cl)ccc2Cl)cc1[N+](=O)[O-]	4
O=S(=O)(O)c1cc(Nc2nc(Nc3ccccc3)nc(Nc3ccccc3)n2)ccc1C=Cc1ccc(Nc2nc(Nc3ccccc3)nc(Nc3ccccc3)n2)cc1S(=O)(=O)O	5
NCCCC[C@H](N[C@@H](CCc1ccccc1)C(=O)O)C(=O)N1CCC[C@H]1C(=O)O	5
O=S(=O)(O)c1ccc(Nc2nc(Nc3ccc(C=Cc4ccc(Nc5nc(Nc6ccc(S(=O)(=O)O)cc6)nc(N6CCOCC6)n5)cc4S(=O)(=O)O)c(S(=O)(=O)O)c3)nc(N3CCOCC3)n2)cc1	5
CCN(CCOC(C)OCC(C)C)c1ccc(N=Nc2ccccc2)cc1 (stereo not given)	4
CN[C@H](CC(C)C)C(=O)N[C@H]1C(=O)N[C@@H](CC(N)=O)C(=O)N[C@H]2C(=O)N[C@H]3C(=O)N[C@H](C(=O)N[C@@H](C(=O)O)c4cc(O)cc(O)c4-c4cc3ccc4O)[C@H](O)c3ccc(c(Cl)c3)Oc3cc2cc(c3O[C@@H]2O[C@H](CO)[C@@H](O)[C@H](O)[C@H]2O[C@H]2C[C@](C)(N)C(O)[C@H](C)O2)Oc2ccc(cc2Cl)[C@H]1O (stereo not given in full)	5
CCCOC(C)OCCc1ccccc1 (stereo not given)	5
CC(CC(=O)OCCN1C(C)(C)CC(OC(=O)CC(C)CC(C)(C)C)CC1(C)C)CC(C)(C)C (stereo not given)	5
C[N+]1(CC(O)COc2cccc3c2CCC(=O)N3)CCC(c2ccccc2)CC1 (stereo not given)	4
CCCCCCCCOc1ccc(-c2ccc(C#N)cc2)cc1	5
O=C=Nc1ccc(Br)cc1	5
O=C(O)CCn1nc2ccccn2c1=O	5
CC(C)CCCCCCCCCCOCCCN	4
CCCCCCCCCCC[C@@H]1C[C@H](O)[C@H](CCCCCC)C(=O)O1	5
CCCNC(=O)c1cnc2ccc(C)cn2c1=O	3
CCCCCCCCCCCCCCCCCCCCCC(=O)O	5
CCn1nnnc1CSCCC(N)=O	4
C=CC(=C)CC/C=C(\C)CCC=C(C)C	5
CCC(C)(NC(=O)c1cc(Cl)c(C)c(Cl)c1)C(=O)CCl (stereo not given)	5
O=C(C=Cc1ccccc1)NCCO	5
CCCCOC(=O)C=Cc1ccccc1	5
